# From patent US10308649B2, “Compounds and methods to suppress autoimmune response” (Oregon State University, priority 2014, dated 2019)
# Experiments:
# [1] = Serum pharmacokinetics after i.p. injection; details: mouse
# Method: FIGS. 13a and 13b show the pharmacokinetics of AHRL1. To determine the half-life of AHRL1, mice were treated with a single intraperitoneal injection of the chemical, and serum concentrations were measured over time by mass spectrometry. In FIG. 13a, C57BL/6 mice were given 10 mg/kg AHRL1 by i.p. injection. Blood was collected at the indicated times by cardiac puncture. The blood serum was processed to remove protein and the samples were analyzed by QTRAP 4000 LC/MS/MS. The blood serum concentration of AHRL1 was determined from a standard curve based on known concentrations of AHRL1.
# Based on the model, the serum half-life of AHRL1 is approximately 2 hours. Additional kinetic parameters include the absorption rate constant (ka) which was 1.2 h^−1. […] The area under the concentration-time curve (AUC0-∞) was 102.5 mg/L*h.
# [2] = system: AhR; experiment: XRE-luciferase reporter gene in Hepa-1 cells expressing endogenous AhR; assay type: cell-based, mouse; details: for XRE-luciferase reporter activity, in words: 16 hours after treating; for fold activation of AhR (reporter gene activity): 10 nM, 12 hours
# Method: FIGS. 9a-9f illustrate activity studies for 10-Cl-BBQ, 11-Cl-BBQ, and combinations thereof. Hepa-1 cells expressing endogenous AhR were transfected with a xenobiotic responsive element (XRE)-luciferase reporter gene. […] The activity was measured 16 hours after treating the cells with the various concentrations.
# The reporter gene activity was measured after 12 hours of treatment with TCDD at a concentration of 1 nM or with the indicated concentrations of AHRL1.
# Hepa-1 cells expressing endogenous AhR were transfected with a XRE-luciferase reporter gene. […] The mean luciferase activity is shown with SEM.
# [3] = target: T1, AhR (Mus musculus, UniProt P30561); experiment: Competitive inhibition of [3H] 3-MC binding to AhR; details: for fold lower / less active than TCDD: relative to IC50 of TCDD
# T1 sequence (P30561 10-848): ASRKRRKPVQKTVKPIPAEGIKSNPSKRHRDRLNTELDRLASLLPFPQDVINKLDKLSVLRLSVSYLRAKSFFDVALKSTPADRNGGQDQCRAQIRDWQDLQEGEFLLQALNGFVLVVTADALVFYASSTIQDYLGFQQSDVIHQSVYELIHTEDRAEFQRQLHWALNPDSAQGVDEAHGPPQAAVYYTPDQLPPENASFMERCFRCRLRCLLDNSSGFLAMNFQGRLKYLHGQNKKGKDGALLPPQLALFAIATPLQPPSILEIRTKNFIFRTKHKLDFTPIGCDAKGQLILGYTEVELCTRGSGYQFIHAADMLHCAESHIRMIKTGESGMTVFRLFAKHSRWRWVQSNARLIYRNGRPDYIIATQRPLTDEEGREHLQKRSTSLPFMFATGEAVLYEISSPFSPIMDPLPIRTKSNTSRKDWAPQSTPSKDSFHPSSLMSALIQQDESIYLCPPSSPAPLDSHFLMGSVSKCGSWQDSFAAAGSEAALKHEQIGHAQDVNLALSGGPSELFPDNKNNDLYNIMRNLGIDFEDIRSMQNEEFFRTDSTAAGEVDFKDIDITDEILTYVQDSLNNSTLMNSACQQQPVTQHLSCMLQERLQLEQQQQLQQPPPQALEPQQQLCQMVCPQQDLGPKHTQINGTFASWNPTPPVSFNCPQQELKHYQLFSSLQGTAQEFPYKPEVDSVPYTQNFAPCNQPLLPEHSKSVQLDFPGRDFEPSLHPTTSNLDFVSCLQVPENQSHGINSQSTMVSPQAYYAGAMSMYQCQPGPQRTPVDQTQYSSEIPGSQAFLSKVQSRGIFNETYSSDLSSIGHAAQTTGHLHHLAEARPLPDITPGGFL
# Excerpt: 3-MC binding to AhR. […] 3-methylcholanthrene (3-MC) to AhR.
# [4] = system: donor CD4+ T cells; experiment: Acute graft versus host model: Treg phenotype of alloactivated donor CD4+ T cells; assay type: in vivo, mouse; details: 10 mg/kg day 0 and day 1, day 2, p-value=0.05
# Method: FIGS. 14a-14i show AHRL1 induces an AhR-dependent Treg phenotype by a mechanism that is mediated by the AhR in donor CD4+ T cells. The AhR-induced Tregs were identified as the CD4+CD25+CTLA-4+CD62L^low population of T cells. To determine if AHRL1 induced changes in donor CD4+ T cells, AHRL1 was compared with TCDD and the vehicle. On day 0, B6D2F1 host mice in groups of 5 were injected with CFSE-labeled C57BL/6 (H-2^b/b) T cells and given 15 mg/kg of AHRL1, 15 μg/kg of TCDD, or vehicle by i.p. injection. At 24 hours, an additional dose of 7 mg/kg of AHRL1 or vehicle was given. Mice that were treated with TCDD at the time of donor cell transfer were used as positive controls. Splenocytes were isolated on day 2 for phenotypic analysis of the alloresponsive (CFSE-diluted) donor CD4+ T cells. Splenocytes were harvested from the host mice and the CD4+ T cells were identified by flow cytometry.
# On day 0, B6D2F1 host mice in groups of 5 were injected with donor T cells obtained from AhR^+/+ or AhR-deficient (AhR^−/−) C57BL/6 mice. Host mice were treated with 2 mg/kg of AHRL1 or vehicle immediately following donor cell transfer and again at 24 hours. […] Thus, the AhR in the CD4+ T cell is the primary target driving the AhR-Treg phenotype.
# On day 0, B6D2F1 host mice in groups of 3-5 were injected with C57BL/6 T cells. Mice were immediately treated with 0 mg/kg, 0.4 mg/kg, 2 mg/kg, or 10 mg/kg of AHRL1 and again on day 1. On day 2, expression of markers associated with the AhR-Treg phenotype increased as the dose of AHRL1 increased. Further, dosing generally correlated with degree of activation of AhR as reflected by CYP1A1, CYP1B1, and AHRR expression in lymph nodes from the same mice. The asterisk (*) indicates a p-value of 0.05 relative to vehicle treatment.
# FIGS. 16c and 16d show expression of phenotypic markers, CD25+ICOS+CD62L^low and CD25+CTLA-4+, associated with AhR-Tregs in mice treated with AHRL1. Host mice were treated with 10 mg/kg of AHRL1, 11-Cl-BBQ analog, or vehicle on day 0 and day 1 following donor cell transfer. On day 2, the alloactivated CD4+ donor T cells were identified based on CFSE dilution. The percentage of donor cells in each group expressing the Treg markers were derived from flow histograms. The data represents mean±SEM of 5 mice per treatment. […] Analog 1 is statistically different from AHRL1 and analog 4 (p-value=0.05). […], analog 1, and analog 4 are shown to be AhR ligands that are capable of inducing Tregs in vivo. Accordingly, analogs 1 and 4 are expected to have a similar therapeutic effect in a subject as AHRL1 by suppressing an autoimmune response. Additionally, analog 6, analog 7, and other analogs of 11-Cl-BBQ, that are found to be active AhR ligands using the disclosed screening method, are expected to induce Tregs and suppress CTL to provide treatment and/or prevention of immune-mediated diseases.
Structure (SMILES),in vivo serum half-life [1],"XRE-luciferase reporter activity, in words [2]",IC50 [3] [nM],expression of CD25+CTLA-4+ on alloactivated CD4+ donor T cells [4],expression of CD25+ICOS+CD62Llow on alloactivated CD4+ donor T cells [4],fold activation of AhR (reporter gene activity) [2],"IC50, competitive inhibition of [3H] 3-MC binding to AhR [3]",fold lower / less active than TCDD [3] [fold]
"O=c1c2cccc3cccc(c32)c2nc3ccc(Cl)cc3n12 [10-Cl-BBQ, 10-chloro-7H-benzimidazo[2,1-a]benzo[de]Iso-quinolin-7-one]",approximately two,activate AhR,,,,,,
"O=c1c2cccc3cccc(c32)c2nc3cc(Cl)ccc3n12 [11-Cl-BBQ, 11-chloro-7H-benzimidazo[2,1-a]benzo[de]Iso-quinolin-7-one]",approximately two,increased AhR reporter activity as compared to 10-Cl-BBQ alone,,,,,,
"O=c1c2cccc3cccc(c32)c2nc3ccccc3n12 [analog 1, 7H-Benzimidazo[2,1-a]benzo[de]isoquinolin-7-one]",,,13.7,statistically different from vehicle,statistically different from vehicle,13 fold,,
"NN1C(=O)c2ccc3c(=O)n4c5ccc(Cl)cc5nc4c4ccc(c2c34)C1=O [analog 2, 2-Amino-10-chlorobenzimidazo[2,1-b]benzo[lmn][3,8]phenanthroline-1,3,6(2H)-trione]",,,,,,did not induce reporter activity,inactive,
"O=c1c2ccc3ccc4cccc5cc(c2c3c45)c2nc3ccc(Cl)cc3n12 [analog 3, 11-Chloro-8H-benzimidazo[2,1-a]phenanthro[3,4,5-defg]isoquinolin-8-one]",,,77.3,,,2 fold,,10
"O=c1c2ccc(Cl)c3cccc(c32)c2nc3cc(Cl)ccc3n12 [analog 4, 4,11-Dichloro-7H-benzimidazo[2,1-a]benzo[de]isoquinolin-7-one]",,,5.2,statistically different from vehicle,statistically different from vehicle,19 fold,,
"O=C(O)c1ccc2c3c1cccc3c(=O)n1c3ccccc3nc21 [analog 5, 7-Oxo-7H-benzimidazo[2,1-a]benzo[de]isoquinoline-3-carboxylic acid]",,,45200,,,did not induce reporter activity,,1000
